Results reported in patent publication US9012635B2, “Pyridone amides and analogs exhibiting anti-cancer and anti-proliferative activities” (Deciphera Pharmaceuticals, LLC, priority 2013, dated 2015).
Counter-ions that a name gives are not always drawn.

Legend:
[1] = target: T1, c-KIT kinase (Seq. ID No. 1) (Homo sapiens, UniProt P10721); experiment: c-KIT kinase assay (pyruvate kinase/lactate dehydrogenase coupled, A340); assay type: biochemical; details: enzymatic assay, ATP 200 μM; read-out: cKIT
T1 construct: c-KIT (cKIT residues T544-V976, from ProQinase, 5.4 nM); purchased ProQinase
Description: Activity of c-KIT kinase (Seq. ID No. 1) was determined by following the production of ADP from the kinase reaction through coupling with the pyruvate kinase/lactate dehydrogenase system (e.g., Schindler et al. Science 2000, 289, pp. 1938-1942). In this assay, the oxidation of NADH (thus the decrease at A340 nm) was continuously monitored spectrophotometrically. The reaction mixture (100 μl) contained c-KIT (cKIT residues T544-V976, from ProQinase, 5.4 nM), polyE4Y (1 mg/mL), MgCl2 (10 mM), pyruvate kinase (4 units), lactate dehydrogenase (0.7 units), phosphoenol pyruvate (1 mM), and NADH (0.28 mM) in 90 mM Tris buffer containing 0.2% octyl-glucoside and 1% DMSO, pH 7.5. Test compounds were incubated with c-KIT (Seq. ID No. 1) and other reaction reagents at 22° C. for less than 2 min before ATP (200 μM) was added to start the reaction. The absorption at 340 nm was monitored continuously for 0.5 hours at 30° C. on Polarstar Optima plate reader (BMG). The reaction rate was calculated using the 0 to 0.5 h time frame. Percent inhibition was obtained by comparison of reaction rate with that of a control (i.e., with no test compound). IC50 values were calculated from a series of percent inhibition values determined at a range of inhibitor concentrations using software routines as implemented in the GraphPad Prism software package.

[2] = target: T2, c-MET kinase (Seq. ID No. 2) (Homo sapiens, UniProt P08581); experiment: c-MET kinase assay (pyruvate kinase/lactate dehydrogenase coupled, A340); assay type: biochemical; details: enzymatic assay, 0.5 h pre-incubation, ATP 100 μM; read-out: cMET
T2 construct: c-MET (c-MET residues: 956-1390, from Invitrogen, catalogue #PV3143, 6 nM); purchased Invitrogen PV3143
Description: Activity of c-MET kinase (Seq. ID No. 2) was determined by following the production of ADP from the kinase reaction through coupling with the pyruvate kinase/lactate dehydrogenase system (e.g., Schindler et al. Science 2000, 289, pp. 1938-1942). In this assay, the oxidation of NADH (thus the decrease at A340 nm) was continuously monitored spectrophotometrically. The reaction mixture (100 μl) contained c-MET (c-MET residues: 956-1390, from Invitrogen, catalogue #PV3143, 6 nM), polyE4Y (1 mg/mL), MgCl2 (10 mM), pyruvate kinase (4 units), lactate dehydrogenase (0.7 units), phosphoenol pyruvate (1 mM), and NADH (0.28 mM) in 90 mM Tris buffer containing 0.25 mM DTT, 0.2% octyl-glucoside and 1% DMSO, pH 7.5. Test compounds were incubated with c-MET (Seq. ID No. 2) and other reaction reagents at 22° C. for 0.5 h before ATP (100 μM) was added to start the reaction. The absorption at 340 nm was monitored continuously for 2 hours at 30° C. on Polarstar Optima plate reader (BMG). The reaction rate was calculated using the 1.0 to 2.0 h time frame. Percent inhibition was obtained by comparison of reaction rate with that of a control (i.e., with no test compound). IC50 values were calculated from a series of percent inhibition values determined at a range of inhibitor concentrations using software routines as implemented in the GraphPad Prism software package.

MKN-45 cells = experiment: MKN-45 cell proliferation assay (resazurin); assay type: cell-based; details: Homo sapiens, 67 h + 5 h resazurin
Description: (§1) MKN-45 cells (catalog #JCRB0254) were obtained from the Japan Health Science Research Resources Bank, Osaka, Japan. Briefly, cells were grown in RPMI 1640 media supplemented with 10% characterized fetal bovine serum (Invitrogen, Carlsbad, Calif.) at 37° C., 5% CO2, 95% humidity. Cells were allowed to expand until reaching 70-95% confluency at which point they were subcultured or harvested for assay use.
(§2) A serial dilution of test compound was dispensed into a 96-well black clear bottom plate (Corning, Corning, N.Y.). Five thousand cells were added per well in 200 μL complete growth medium. Plates were incubated for 67 hours at 37° C., 5% CO2, 95% humidity. At the end of the incubation period 40 μL of a 440 μM solution of resazurin (Sigma, St. Louis, Mo.) in PBS was added to each well and plates were incubated for an additional 5 h at 37° C., 5% CO2, 95% humidity. Plates were read on a Synergy2 reader (Biotek, Winooski, Vt.) using an excitation of 540 nm and an emission of 600 nm. Data was analyzed using Prism software (GraphPad, San Diego, Calif.) to calculate IC50 values.

[3] = target: KDR kinase (Seq ID No. 3) (Homo sapiens, UniProt P35968, DEL940-989/E990V); experiment: KDR kinase assay (assays K1, K2, K3); assay type: biochemical; details: enzymatic assay; variant K1, K2 or K3 not given
Description: The activity of KDR kinase was determined by following the production of ADP from the kinase reaction through coupling with the pyruvate kinase/lactate dehydrogenase system (e.g., Schindler et al. Science 2000, 289, pp. 1938-1942). In this assay, the oxidation of NADH (thus the decrease at A340 nm) was continuously monitored spectrophotometrically. The reaction mixture (100 μl) contained KDR (Seq ID No. 3, 1.5 nM to 7.1 nM, nominal concentration), polyE4Y (1 mg/mL), pyruvate kinase (3.5 units), lactate dehydrogenase (5.5 units), phosphoenolpyruvate (1 mM), and NADH (0.28 mM) in 60 mM Tris buffer containing 0.13% octyl-glucoside, 13 mM MgCl2, 6.8 mM DTT, test compound, and 3.5% DMSO at pH 7.5. The reaction was initiated by adding ATP (0.2 mM, final concentration). The absorption at 340 nm was continuously monitored for 3 h at 30° C. on a Polarstar Optima plate reader (BMG) or instrument of similar capacity. The reaction rate was calculated using the 1 h to 2 h time frame. Percent inhibition was obtained by comparison of reaction rate with that of a control (i.e., with no test compound). IC50 values were calculated from a series of percent inhibition values determined at a range of inhibitor concentrations using software routines as implemented in the GraphPad Prism software package.
KDR kinase assay K2 is the same as for assay K1 except that (1) a nominal concentration of 2.1 nM of enzyme was employed (2) the reaction was pre-incubated with test compound at 30° C. for 2 h prior to initiation with ATP and (3) 1.0 mM ATP (final concentration) was used to initiate the reaction.
KDR kinase assay K3 is the same as for assay K1 except that (1) a nominal concentration of 1.1 nM of enzyme was employed, (2) the buffer components per 100 μl reaction mixture were as follows: 75 mM Tris buffer containing 0.066% octyl-glucoside, 17 mM MgCl2, and 1% DMSO at pH 7.5, (3) the final concentration of DTT was 0.66 mM, (4) the reaction was pre-incubated with test compound at 30° C. for 1 h prior to initiation with ATP, and (5) 1.0 mM ATP (final concentration) was used to initiate the reaction.

EBC-1 cells = experiment: EBC-1 cell proliferation assay (resazurin); assay type: cell-based; details: Homo sapiens, 67 h + 5 h resazurin, read-out: EBC1 Proliferation
Description: as §1, with “EBC-1” for “MKN-45”, “#JCRB0820)” for “#JCRB0254)”, “DMEM” for “RPMI 1640 media”
as §2, with “N.Y.). For each cell line, five” for “N.Y.). Five”, “and” for “and plates were”, “5 hours” for “5 h”

T2 sequence (P08581 with tags, fused parts or gaps): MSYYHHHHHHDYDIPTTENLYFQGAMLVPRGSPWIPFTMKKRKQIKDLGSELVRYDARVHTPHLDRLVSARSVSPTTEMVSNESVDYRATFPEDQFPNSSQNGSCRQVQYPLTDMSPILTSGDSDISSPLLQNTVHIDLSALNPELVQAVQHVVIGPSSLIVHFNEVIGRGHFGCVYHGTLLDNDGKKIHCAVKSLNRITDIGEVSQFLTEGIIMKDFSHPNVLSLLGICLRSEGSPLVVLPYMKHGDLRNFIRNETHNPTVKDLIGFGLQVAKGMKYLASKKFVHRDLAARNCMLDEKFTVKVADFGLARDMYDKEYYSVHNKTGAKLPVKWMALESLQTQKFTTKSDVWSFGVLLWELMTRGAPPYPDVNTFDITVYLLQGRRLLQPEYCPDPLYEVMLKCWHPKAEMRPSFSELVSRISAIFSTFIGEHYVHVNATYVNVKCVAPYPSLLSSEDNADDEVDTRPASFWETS
T1 sequence (P10721 with tags, fused parts or gaps): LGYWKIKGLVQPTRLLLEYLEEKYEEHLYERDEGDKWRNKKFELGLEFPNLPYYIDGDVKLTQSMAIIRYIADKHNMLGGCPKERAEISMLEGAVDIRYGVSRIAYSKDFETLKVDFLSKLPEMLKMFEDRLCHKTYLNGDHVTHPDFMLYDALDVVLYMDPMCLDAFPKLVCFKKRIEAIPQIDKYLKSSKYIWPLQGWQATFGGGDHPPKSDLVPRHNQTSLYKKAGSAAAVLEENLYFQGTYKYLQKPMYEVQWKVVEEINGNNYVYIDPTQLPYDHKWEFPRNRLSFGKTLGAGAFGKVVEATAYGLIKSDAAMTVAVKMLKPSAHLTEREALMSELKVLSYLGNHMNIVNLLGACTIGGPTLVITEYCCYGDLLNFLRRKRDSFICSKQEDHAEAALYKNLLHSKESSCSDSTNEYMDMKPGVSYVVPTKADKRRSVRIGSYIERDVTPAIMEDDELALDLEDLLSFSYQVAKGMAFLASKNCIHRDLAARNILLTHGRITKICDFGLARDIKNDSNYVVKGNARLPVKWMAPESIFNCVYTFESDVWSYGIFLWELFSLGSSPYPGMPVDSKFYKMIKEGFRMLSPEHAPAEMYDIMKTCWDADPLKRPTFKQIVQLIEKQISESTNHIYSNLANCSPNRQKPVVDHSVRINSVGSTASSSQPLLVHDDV
KDR kinase (Seq ID No. 3), sequence (P35968 with tags, fused parts or gaps DEL940-989/E990V): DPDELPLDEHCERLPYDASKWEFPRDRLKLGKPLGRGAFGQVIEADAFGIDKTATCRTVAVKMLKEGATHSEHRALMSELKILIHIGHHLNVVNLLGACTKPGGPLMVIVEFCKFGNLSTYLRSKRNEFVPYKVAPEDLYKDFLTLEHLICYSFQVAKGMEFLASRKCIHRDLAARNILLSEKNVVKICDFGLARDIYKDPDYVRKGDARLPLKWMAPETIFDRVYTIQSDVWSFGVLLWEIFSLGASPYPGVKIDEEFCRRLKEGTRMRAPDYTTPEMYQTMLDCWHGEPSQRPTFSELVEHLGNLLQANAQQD

Structure (SMILES)	IC50 [1]	IC50 [2]	IC50 (MKN-45 cells)	IC50 [3]	IC50 (EBC-1 cells)
CNc1ccn(-c2ccc(F)cc2)c(=O)c1C(=O)Nc1cc(F)c(Oc2ccnc(-c3cnn(C)c3)c2)cc1F [Example 4, N-(2,5-difluoro-4-((2-(1-methyl-1H-pyrazol-4-yl)pyridin-4-yl)oxy)phenyl)-1-(4-fluorophenyl)-4-(methylamino)-2-oxo-1,2-dihydropyridine-3-carboxamide]	100 to 1000 nM	≤ 100 nM	> 1000 nM	> 1000 nM	100 to 1000 nM
CCOc1ccn(-c2ccc(F)cc2)c(=O)c1C(=O)Nc1cc(F)c(Oc2ccnc(-c3cnn(CC)c3)c2)cc1F [Example 7, 4-ethoxy-N-(4-((2-(1-ethyl-1H-pyrazol-4-yl)pyridin-4-yl)oxy)-2,5-difluorophenyl)-1-(4-fluorophenyl)-2-oxo-1,2-dihydropyridine-3-carboxamide]	> 1000 nM	≤ 100 nM	≤ 100 nM	> 1000 nM	≤ 100 nM
CCOc1ccn(-c2ccc(F)cc2)c(=O)c1C(=O)Nc1cc(F)c(Oc2ccnc(-c3cn[nH]c3)c2)cc1F [Example 8, N-(4-((2-(1H-pyrazol-4-yl)pyridin-4-yl)oxy)-2,5-difluorophenyl)-4-ethoxy-1-(4-fluorophenyl)-2-oxo-1,2-dihydropyridine-3-carboxamide hydrochloride]	> 1000 nM	≤ 100 nM	100 to 1000 nM	> 1000 nM	100 to 1000 nM

The next lines start with results.

IC50 [1]	IC50 [2]	IC50 (MKN-45 cells)	IC50 [3]	Structure (SMILES)	IC50 (EBC-1 cells)
> 1000 nM	≤ 100 nM	100 to 1000 nM	> 1000 nM	CCOc1ccn(-c2ccc(F)cc2)c(=O)c1C(=O)Nc1cc(F)c(Oc2ccnc(-c3cnn(C(C)C)c3)c2)cc1F [Example 6, N-(2,5-difluoro-4-((2-(1-isopropyl-1H-pyrazol-4-yl)pyridin-4-yl)oxy)phenyl)-4-ethoxy-1-(4-fluorophenyl)-2-oxo-1,2-dihydropyridine-3-carboxamide]	100 to 1000 nM
≤ 100 nM	≤ 100 nM	–	> 1000 nM	Cn1cc(C(=O)Nc2cc(F)c(Oc3ccnc(-c4cnn(C)c4)c3)cc2F)c(=O)c(-c2ccc(F)cc2)c1 [Example 9, N-(2,5-difluoro-4-((2-(1-methyl-1H-pyrazol-4-yl)pyridin-4-yl)oxy)phenyl)-5-(4-fluorophenyl)-1-methyl-4-oxo-1,4-dihydropyridine-3-carboxamide]	–
≤ 100 nM	≤ 100 nM	–	100 to 1000 nM	Cn1cc(-c2cc(Oc3cc(F)c(NC(=O)c4c[nH]cc(-c5ccc(F)cc5)c4=O)cc3F)ccn2)cn1 [Example 10, N-(2,5-difluoro-4-((2-(1-methyl-1H-pyrazol-4-yl)pyridin-4-yl)oxy)phenyl)-5-(4-fluorophenyl)-4-oxo-1,4-dihydropyridine-3-carboxamide]	–
